{
  "source": "PubChem BioAssay AID1963427",
  "about": "(Molecular Pharmacology Branch, DTP, NCI, 2024)",
  "system": "317291-083-R-J1-PDC complex spheroid growth",
  "experiment": "Anticancer human tumor 317291-083-R-J1-PDC patient-derived soft tissue sarcoma cell line growth inhibition [Asc]",
  "conditions": "for IC50: curve of first compound; for viability, T/C: stronger effect = lower value",
  "in_short": "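Tumor cells were grown as complex spheroids with human endothelial cells (HUVEC) and human mesenchymal stem cells as stroma. Agents were tested alone and in combination, in half-log steps down from the clinical Cmax, or from 10 microM where Cmax was unknown.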",
  "data": [
    {"compound": "NC(=O)C(=Cn1cnc(-c2cc(C(F)(F)F)cc(C(F)(F)F)c2)n1)c1cncnc1", "note": "+ CCN1C(C(=O)NC23CCC(C(=O)O)(CC2)CC3)C(c2cccc(Cl)c2F)C2(C(=O)Nc3cc(Cl)ccc32)C12CCCCC2;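 further: compound exposure lasted seven days after spheroids formed for three days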;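 on viability, T/C: 100% = DMSO vehicle control wells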", "values": [
      {"measurement": "IC50", "setting": "second compound 0.00949 µM", "value": 34.2, "unit": "nM"},
      {"measurement": "IC50", "setting": "second compound 0.03 µM", "value": 21.5, "unit": "nM"},
      {"measurement": "IC50", "setting": "second compound 0.0949 µM", "value": 23.8, "unit": "nM"},
      {"measurement": "IC50", "setting": "second compound 0.3 µM", "value": 24.3, "unit": "nM"},
      {"measurement": "IC50", "setting": "second compound 0.949 µM", "value": 23.6, "unit": "nM"},
      {"measurement": "IC50", "setting": "second compound 3 µM", "value": 18.2, "unit": "nM"},
      {"measurement": "viability, T/C", "setting": "second compound 0.00949 µM, first compound 0.000949 µM", "value": 97.9, "unit": "%"},
      {"measurement": "viability, T/C", "setting": "second compound 0.00949 µM, first compound 0.003 µM", "value": 83.4, "unit": "%"},
      {"measurement": "viability, T/C", "setting": "second compound 0.00949 µM, first compound 0.00949 µM", "value": 79.2, "unit": "%"},
      {"measurement": "viability, T/C", "setting": "second compound 0.00949 µM, first compound 0.03 µM", "value": 57.7, "unit": "%"},
      {"measurement": "viability, T/C", "setting": "second compound 0.00949 µM, first compound 0.0949 µM", "value": 10, "unit": "%"},
      {"measurement": "viability, T/C", "setting": "second compound 0.00949 µM, first compound 0.3 µM", "value": 2.56, "unit": "%"},
      {"measurement": "viability, T/C", "setting": "second compound 0.03 µM, first compound 0.000949 µM", "value": 118, "unit": "%"},
      {"measurement": "viability, T/C", "setting": "second compound 0.03 µM, first compound 0.003 µM", "value": 87.6, "unit": "%"},
      {"measurement": "viability, T/C", "setting": "second compound 0.03 µM, first compound 0.00949 µM", "value": 84.8, "unit": "%"},
      {"measurement": "viability, T/C", "setting": "second compound 0.03 µM, first compound 0.03 µM", "value": 38.2, "unit": "%"},
      {"measurement": "viability, T/C", "setting": "second compound 0.03 µM, first compound 0.0949 µM", "value": 5.81, "unit": "%"},
      {"measurement": "viability, T/C", "setting": "second compound 0.03 µM, first compound 0.3 µM", "value": 2.23, "unit": "%"},
      {"measurement": "viability, T/C", "setting": "second compound 0.0949 µM, first compound 0.000949 µM", "value": 94.6, "unit": "%"},
      {"measurement": "viability, T/C", "setting": "second compound 0.0949 µM, first compound 0.003 µM", "value": 109, "unit": "%"},
      {"measurement": "viability, T/C", "setting": "second compound 0.0949 µM, first compound 0.00949 µM", "value": 72.4, "unit": "%"},
      {"measurement": "viability, T/C", "setting": "second compound 0.0949 µM, first compound 0.03 µM", "value": 46.4, "unit": "%"},
      {"measurement": "viability, T/C", "setting": "second compound 0.0949 µM, first compound 0.0949 µM", "value": 10.3, "unit": "%"},
      {"measurement": "viability, T/C", "setting": "second compound 0.0949 µM, first compound 0.3 µM", "value": 2.94, "unit": "%"},
      {"measurement": "viability, T/C", "setting": "second compound 0.3 µM, first compound 0.000949 µM", "value": 95.1, "unit": "%"},
      {"measurement": "viability, T/C", "setting": "second compound 0.3 µM, first compound 0.003 µM", "value": 106, "unit": "%"},
      {"measurement": "viability, T/C", "setting": "second compound 0.3 µM, first compound 0.00949 µM", "value": 74.6, "unit": "%"},
      {"measurement": "viability, T/C", "setting": "second compound 0.3 µM, first compound 0.03 µM", "value": 47.4, "unit": "%"},
      {"measurement": "viability, T/C", "setting": "second compound 0.3 µM, first compound 0.0949 µM", "value": 7.13, "unit": "%"},
      {"measurement": "viability, T/C", "setting": "second compound 0.3 µM, first compound 0.3 µM", "value": 2.81, "unit": "%"},
      {"measurement": "viability, T/C", "setting": "second compound 0.949 µM, first compound 0.000949 µM", "value": 110, "unit": "%"},
      {"measurement": "viability, T/C", "setting": "second compound 0.949 µM, first compound 0.003 µM", "value": 90.3, "unit": "%"},
      {"measurement": "viability, T/C", "setting": "second compound 0.949 µM, first compound 0.00949 µM", "value": 69.6, "unit": "%"},
      {"measurement": "viability, T/C", "setting": "second compound 0.949 µM, first compound 0.03 µM", "value": 55.6, "unit": "%"},
      {"measurement": "viability, T/C", "setting": "second compound 0.949 µM, first compound 0.0949 µM", "value": 4.34, "unit": "%"},
      {"measurement": "viability, T/C", "setting": "second compound 0.949 µM, first compound 0.3 µM", "value": 2.96, "unit": "%"},
      {"measurement": "viability, T/C", "setting": "second compound 3 µM, first compound 0.000949 µM", "value": 100, "unit": "%"},
      {"measurement": "viability, T/C", "setting": "second compound 3 µM, first compound 0.003 µM", "value": 87.2, "unit": "%"},
      {"measurement": "viability, T/C", "setting": "second compound 3 µM, first compound 0.00949 µM", "value": 76.8, "unit": "%"},
      {"measurement": "viability, T/C", "setting": "second compound 3 µM, first compound 0.03 µM", "value": 27.7, "unit": "%"},
      {"measurement": "viability, T/C", "setting": "second compound 3 µM, first compound 0.0949 µM", "value": 21.7, "unit": "%"},
      {"measurement": "viability, T/C", "setting": "second compound 3 µM, first compound 0.3 µM", "value": 2.15, "unit": "%"}
    ]}
  ]
}
